Reference: ChEMBL document CHEMBL4610032, “Inhibitory effects of triarylpyrazole derivatives on LPS-induced nitric oxide and PGE2 productions in murine RAW 264.7 macrophages” (Bioorg Med Chem Lett, 2020)

Experiments:
RAW264.7 [1] = assay: Antiinflammatory activity against murine RAW264.7 cells assessed as inhibition of LPS-induced PGE2 production at 10 nM preincubated for 1 hr followed by LPS stimulation and measured after 24 hrs by EIA relative to control; type: functional; conditions: Mus musculus
RAW264.7 [2] = assay: Antiinflammatory activity against murine RAW264.7 cells assessed as inhibition of LPS-induced NO production at 40 uM preincubated for 1 hr followed by LPS stimulation and measured after 24 hrs by Griess assay relative to control; type: functional; conditions: Mus musculus
[3] = Cytotoxicity against murine RAW264.7 cells assessed as cell viability at 10 uM relative to control; type: cell-based; conditions: mouse, read-out: Activity
RAW264.7 [4] = assay: Antiinflammatory activity against murine RAW264.7 cells assessed as inhibition of LPS-induced PGE2 production at 10 uM preincubated for 1 hr followed by LPS stimulation and measured after 24 hrs by EIA relative to control; type: functional; conditions: Mus musculus
RAW264.7 [5] = assay: Antiinflammatory activity against murine RAW264.7 cells assessed as inhibition of LPS-induced NO production at 10 uM preincubated for 1 hr followed by LPS stimulation and measured after 24 hrs by Griess assay relative to control; type: functional; conditions: Mus musculus
RAW264.7 [6] = assay: Antiinflammatory activity against murine RAW264.7 cells assessed as inhibition of LPS-induced PGE2 production preincubated for 1 hr followed by LPS stimulation and measured after 24 hrs by EIA; type: functional, cell-based; conditions: Mus musculus
RAW264.7 [7] = assay: Antiinflammatory activity against murine RAW264.7 cells assessed as downregulation of LPS-stimulated COX2 protein expression pretreated for 1 hr followed by LPS addition and measured after 24 hrs by Western blot analysis; type: functional, cell-based; conditions: Mus musculus
RAW264.7 [8] = assay: Antiinflammatory activity against murine RAW264.7 cells assessed as reduction in LPS-stimulated COX2 mRNA expression pretreated for 1 hr followed by LPS addition and measured after 4 hrs by qRT-PCR analysis; type: functional, cell-based; conditions: Mus musculus

In the case of `CS(=O)(=O)Nc1ccc([N+](=O)[O-])cc1OC1CCCCC1` [NS-398], the inhibition at 0.01 µM (RAW264.7 [1]) is reported as 59.5%.

In the case of `CC(=N)NCCCC[C@H](N)C(=O)O` [L-NIL], the inhibition at 40 µM (RAW264.7 [2]) is reported as 31.5%.

For `O=C(NCCNc1cc(-c2cn(-c3ccccc3)nc2-c2cccc(O)c2)ccn1)c1ccc(O)cc1`, the viability at 10 µM [3] was 124%, the inhibition at 10 µM (RAW264.7 [4]) was -56.4% and the inhibition at 10 µM (RAW264.7 [5]) was 34.5%.

For `COc1cccc(-c2nn(-c3ccccc3)cc2-c2ccnc(NCCCNC(=O)Nc3cccc(C(F)(F)F)c3)c2)c1`, the viability at 10 µM [3] was 124% and the inhibition at 10 µM (RAW264.7 [5]) was 31.3%.

For `COc1cccc(-c2nn(-c3ccccc3)cc2-c2ccnc(NCCNC(=O)c3ccccc3)c2)c1`, the viability at 10 µM [3] was 132%, the inhibition at 10 µM (RAW264.7 [4]) was 36.2% and the inhibition at 10 µM (RAW264.7 [5]) was 12.8%.

`COc1cccc(-c2nn(-c3ccccc3)cc2-c2ccnc(NCCCNC(=O)Nc3ccccc3)c2)c1` showed a viability at 10 µM [3] of 143%, an inhibition at 10 µM (RAW264.7 [4]) of 56.3% and an inhibition at 10 µM (RAW264.7 [5]) of 22.2%.

`COc1cccc(-c2nn(-c3ccccc3)cc2-c2ccnc(NCCCNC(=O)Nc3ccc(Cl)c(Cl)c3)c2)c1` gave a viability at 10 µM [3] of 121%, an inhibition at 10 µM (RAW264.7 [4]) of 77.1% and an inhibition at 10 µM (RAW264.7 [5]) of 38.6%. The IC50 (RAW264.7 [6]) was 4.21 µM and the inhibition (RAW264.7 [7]) was “Dose-dependent effect”.

`COc1cccc(-c2nn(-c3ccccc3)cc2-c2ccnc(NCCCNC(=O)c3ccccc3)c2)c1` gave a viability at 10 µM [3] of 118%, an inhibition at 10 µM (RAW264.7 [4]) of 6.1% and an inhibition at 10 µM (RAW264.7 [5]) of 18.7%.

Molecule `COc1cccc(-c2nn(-c3ccccc3)cc2-c2ccnc(NCCNC(=O)c3cccc(C(F)(F)F)c3)c2)c1` has a viability at 10 µM [3] of 125%, an inhibition at 10 µM (RAW264.7 [4]) of 58.1% and an inhibition at 10 µM (RAW264.7 [5]) of 19.1%.

`O=C(NCCCNc1cc(-c2cn(-c3ccccc3)nc2-c2cccc(O)c2)ccn1)c1ccccc1` gave a viability at 10 µM [3] of 145%, an inhibition at 10 µM (RAW264.7 [4]) of 12.6% and an inhibition at 10 µM (RAW264.7 [5]) of 2.1%.

For `COc1cccc(-c2nn(-c3ccccc3)cc2-c2ccnc(NCCCNC(=O)c3cccc(C(F)(F)F)c3)c2)c1`, the viability at 10 µM [3] was 115%, the inhibition at 10 µM (RAW264.7 [4]) was 73.8% and the inhibition at 10 µM (RAW264.7 [5]) was 28.8%. The IC50 (RAW264.7 [6]) was 5.62 µM.

Molecule `COc1cccc(-c2nn(-c3ccccc3)cc2-c2ccnc(NCCNC(=O)Nc3ccc(Cl)c(Cl)c3)c2)c1` has a viability at 10 µM [3] of 129%, an inhibition at 10 µM (RAW264.7 [4]) of 76.1% and an inhibition at 10 µM (RAW264.7 [5]) of 22%. The IC50 (RAW264.7 [6]) was 4.51 µM.

`O=C(NCCNc1cc(-c2cn(-c3ccccc3)nc2-c2cccc(O)c2)ccn1)c1ccccc1` showed a viability at 10 µM [3] of 105%, an inhibition at 10 µM (RAW264.7 [4]) of 20.9% and an inhibition at 10 µM (RAW264.7 [5]) of 12.2%.

Work on `O=C(NCCNc1cc(-c2cn(-c3ccccc3)nc2-c2cccc(O)c2)ccn1)c1ccc(F)cc1` yielded a viability at 10 µM [3] of 127%, an inhibition at 10 µM (RAW264.7 [4]) of -1.9% and an inhibition at 10 µM (RAW264.7 [5]) of 20.4%.

For `COc1cccc(-c2nn(-c3ccccc3)cc2-c2ccnc(NCCNC(=O)Nc3ccccc3)c2)c1`, the viability at 10 µM [3] was 143%, the inhibition at 10 µM (RAW264.7 [4]) was 53.9% and the inhibition at 10 µM (RAW264.7 [5]) was 12.2%.

With `COc1cccc(-c2nn(-c3ccccc3)cc2-c2ccnc(NCCNC(=O)c3ccc(F)cc3)c2)c1` the viability at 10 µM [3] was 136%, the inhibition at 10 µM (RAW264.7 [4]) was 47.9% and the inhibition at 10 µM (RAW264.7 [5]) was 15.4%.

In the case of `COc1ccc(C(=O)NCCCNc2cc(-c3cn(-c4ccccc4)nc3-c3cccc(OC)c3)ccn2)cc1`, the viability at 10 µM [3] is reported as 112%, the inhibition at 10 µM (RAW264.7 [4]) is reported as 75.4% and the inhibition at 10 µM (RAW264.7 [5]) is reported as 48.8%. The IC50 (RAW264.7 [6]) was 2.94 µM, the inhibition (RAW264.7 [7]) was “Dose-dependent effect” and the inhibition (RAW264.7 [8]) was “Dose-dependent effect”.

With `COc1ccc(C(=O)NCCNc2cc(-c3cn(-c4ccccc4)nc3-c3cccc(OC)c3)ccn2)cc1` the viability at 10 µM [3] was 116%, the inhibition at 10 µM (RAW264.7 [4]) was 59.6% and the inhibition at 10 µM (RAW264.7 [5]) was 12.3%.

Molecule `O=C(NCCCNc1cc(-c2cn(-c3ccccc3)nc2-c2cccc(O)c2)ccn1)c1ccc(O)cc1` has a viability at 10 µM [3] of 126%, an inhibition at 10 µM (RAW264.7 [4]) of 31.1% and an inhibition at 10 µM (RAW264.7 [5]) of 39.7%.

`O=C(NCCCNc1cc(-c2cn(-c3ccccc3)nc2-c2cccc(O)c2)ccn1)c1cccc(C(F)(F)F)c1` showed a viability at 10 µM [3] of 123% and an inhibition at 10 µM (RAW264.7 [4]) of 11.6%.

With `O=C(NCCCNc1cc(-c2cn(-c3ccccc3)nc2-c2cccc(O)c2)ccn1)c1ccc(F)cc1` the viability at 10 µM [3] was 120%, the inhibition at 10 µM (RAW264.7 [4]) was 63.1% and the inhibition at 10 µM (RAW264.7 [5]) was 32.6%. It also gave an IC50 (RAW264.7 [6]) of 7.06 µM.

In the case of `COc1cccc(-c2nn(-c3ccccc3)cc2-c2ccnc(NCCCNC(=O)c3ccc(F)cc3)c2)c1`, the viability at 10 µM [3] is reported as 133%, the inhibition at 10 µM (RAW264.7 [4]) is reported as 28.9% and the inhibition at 10 µM (RAW264.7 [5]) is reported as 18.6%.

Molecule `COc1cccc(-c2nn(-c3ccccc3)cc2-c2ccnc(NCCNC(=O)Nc3cccc(C(F)(F)F)c3)c2)c1` has a viability at 10 µM [3] of 165%, an inhibition at 10 µM (RAW264.7 [4]) of 69.9% and an inhibition at 10 µM (RAW264.7 [5]) of 26.1%. It also gave an IC50 (RAW264.7 [6]) of 5.11 µM.

With `O=C(NCCNc1cc(-c2cn(-c3ccccc3)nc2-c2cccc(O)c2)ccn1)c1cccc(C(F)(F)F)c1` the viability at 10 µM [3] was 135%, the inhibition at 10 µM (RAW264.7 [4]) was 12.2% and the inhibition at 10 µM (RAW264.7 [5]) was 18.6%.
